Values joined by “and” are separate entries in the source; they are usually repeats but may differ in a detail not shown here. Equal values may be shown once. Read-outs that look alike come from different tables or passages of the source.
Tests used:
[1] = Concentration in lungs and tumors of H526 xenograft model; assay type: in vivo, mouse; conditions: for concentration at 8 h / concentration at 24 h: female, BALB/c nude, mouse, oral
Source text: Supplementary Figure 7. Pharmacokinetic profile of NHWD-870 using mouse and rat models. […]
98615821 on day 21. These mice were administrated the indicated drug daily for 21 days. Data are represented as mean ± SEM of 3 independent experiments. Source data are provided as a Source Data file. […]
9. In vivo pharmacokinetics study. Mouse and SD rat models were used to evaluate pharmacokinetic property of NHWD-870. NHWD-870 was administrated […]
Concentration of drugs in plasma, lung and tumor tissues were measured for the indicated time. […]

[2] = system: ES-2 ovarian cancer; experiment: ES-2 ovarian tumor xenograft growth; assay type: in vivo, mouse; conditions: ES-2, 1mg/kg p.o. QD x 21D
Experimental: 4–6 weeks old female BALB/c nude mice were used for most experiments, with the exception of 6–8 weeks old female C57BL/6 mice were used for B16F10 experiments, and 6–8 weeks old male BALB/c nude mice and SD rats were used for pharmacokinetic experiments. All animals were purchased from Shanghai SIPPR-Bk Lab Animal Co., Ltd. All animals were housed under a regimen of 12 h light/12 h dark cycles and specific pathogen-free conditions. 5×10^6 NCI-H526, ES-2, MDA-MB231, A2780, A375, B16F10, and TMD-8 cells (0.1 ml) were injected subcutaneously into female nude mice. The melanoma patient-derived xenograft model was derived from a human melanoma sample (BRAF, NARS and NF1 wild type, and p53 mutant) removed from a patient in Xiangya Hospital. Surgically removed tumor fragments were implanted subcutaneously into female NSG mice. When the tumors grew to ~1000 mm^3, they were harvested and cryopreserved or immediately re-implanted for expansion or experiments. Mouse body weight and tumor sizes were measured every 3 days. Once the tumors grew to 150–200 mm^3, mice were treated with the compounds as described in the Figures. 1 × 10^6 A2780 cells (1 ml) were injected into the abdominal cavity of nude mice. Ascitic volume and tumor weight were measured by an electronic balance. All the procedures were evaluated and approved by the Institutional Animal Care and Use Committee of Central South University and Yale University.
Supplementary Figure 9. […]
PO, oral administration; QD, once daily; BID, twice daily; D, day. (c,d) Tumor growth curves for ES2 ovarian tumor (c), MDA-MB231 breast tumor (d) bearing mice treated with the indicated compounds for 21 days. Compounds were orally administrated once daily. Data are presented as mean ± SEM from 6 different mice. p values were calculated using two-tailed, unpaired t tests.
**, p<0.01; ***, p<0.001. Source data are provided as a Source Data file. […]

Structure (SMILES): Cc1nnn(C)c1-c1cnc2c3c4cnn(C)c4ccc3n([C@H](c3ccccc3)C3CCOCC3)c2c1 [NHWD-870]
- Analyte Concentration in Tumor Homogenate ([1]; Group 2, 3 mg/kg QD, 8h, individual animals): 51.4 ng/mL and 12.9 ng/mL and 16.6 ng/mL
- Analyte Concentration in Lung Homogenate ([1]; Group 2, 3 mg/kg QD, 8h, individual animals, LLOQ 1 ng/mL): 13.8 ng/mL and 4.51 ng/mL and 8.51 ng/mL
- Analyte Concentration in Lung ([1]; Group 2, 3 mg/kg QD, 8h, individual animals, LLOQ 10 ng/g): 138 ng/g and 45.1 ng/g and 85.1 ng/g
- Analyte Concentration in Tumor ([1]; Group 2, 3 mg/kg QD, 8h, individual animals, dilution factor 10): 514 ng/g and 129 ng/g and 166 ng/g
- Analyte Concentration in Tumor Homogenate ([1]; Group 2, 3 mg/kg QD, 24h, individual animals): 3.37 ng/mL and 2.3 ng/mL and 5.48 ng/mL
- Analyte Concentration in Lung Homogenate ([1]; Group 2, 3 mg/kg QD, 24h, individual animals, LLOQ 1 ng/mL): BQL
- Analyte Concentration in Lung ([1]; Group 2, 3 mg/kg QD, 24h, individual animals, LLOQ 10 ng/g): BQL
- Analyte Concentration in Tumor ([1]; Group 2, 3 mg/kg QD, 24h, individual animals, dilution factor 10): 33.7 ng/g and 23 ng/g and 54.8 ng/g
- Analyte Concentration in Tumor Homogenate ([1]; Group 3, 1.5 mg/kg QD, 8h, individual animals): 19.2 ng/mL and 22.1 ng/mL
- Analyte Concentration in Lung Homogenate ([1]; Group 3, 1.5 mg/kg QD, 8h, individual animals, LLOQ 1 ng/mL): 6.31 ng/mL and 9.86 ng/mL
- Analyte Concentration in Lung ([1]; Group 3, 1.5 mg/kg QD, 8h, individual animals, LLOQ 10 ng/g): 63.1 ng/g and 98.6 ng/g
- Analyte Concentration in Tumor ([1]; Group 3, 1.5 mg/kg QD, 8h, individual animals, dilution factor 10): 192 ng/g and 221 ng/g
- Analyte Concentration in Tumor Homogenate ([1]; Group 3, 1.5 mg/kg QD, 24h, individual animals): 2.34 ng/mL and 1.67 ng/mL
- Analyte Concentration in Lung Homogenate ([1]; Group 3, 1.5 mg/kg QD, 24h, individual animals, LLOQ 1 ng/mL): BQL
- Analyte Concentration in Lung ([1]; Group 3, 1.5 mg/kg QD, 24h, individual animals, LLOQ 10 ng/g): BQL
- Analyte Concentration in Tumor ([1]; Group 3, 1.5 mg/kg QD, 24h, individual animals, dilution factor 10): 23.4 ng/g and 16.7 ng/g
- Analyte Concentration in Tumor Homogenate ([1]; Group 4, 3 mg/kg Q2D, 8h, individual animals): 82.3 ng/mL and 21.5 ng/mL and 23.8 ng/mL
- Analyte Concentration in Lung Homogenate ([1]; Group 4, 3 mg/kg Q2D, 8h, individual animals, LLOQ 1 ng/mL): 49.2 ng/mL and 8.34 ng/mL and 15.8 ng/mL
- Analyte Concentration in Lung ([1]; Group 4, 3 mg/kg Q2D, 8h, individual animals, LLOQ 10 ng/g): 492 ng/g and 83.4 ng/g and 158 ng/g
- Analyte Concentration in Tumor ([1]; Group 4, 3 mg/kg Q2D, 8h, individual animals, dilution factor 10): 823 ng/g and 215 ng/g and 238 ng/g
- Analyte Concentration in Tumor Homogenate ([1]; Group 4, 3 mg/kg Q2D, 24h, individual animals): 6.96 ng/mL and 4.06 ng/mL and 14.6 ng/mL
- Analyte Concentration in Lung Homogenate ([1]; Group 4, 3 mg/kg Q2D, 24h, individual animals, LLOQ 1 ng/mL): 6.96 ng/mL and BQL and 2.42 ng/mL
- Analyte Concentration in Lung ([1]; Group 4, 3 mg/kg Q2D, 24h, individual animals, LLOQ 10 ng/g): 69.6 ng/g and BQL and 24.2 ng/g
- Analyte Concentration in Tumor ([1]; Group 4, 3 mg/kg Q2D, 24h, individual animals, dilution factor 10): 69.6 ng/g and 40.6 ng/g and 146 ng/g
- penetration into the lungs and SCLC tumors ([1]; H526 xenograft model, oral 3 mg/kg daily for 21 days): good penetration into the lungs and SCLC tumors
- concentration at 8 h ([1]; lung homogenate, 1.5 mg/kg, Group 3, 1.5 mg/kg QD, 8h, individual animals, LLOQ 1 ng/mL, read-out: Analyte Concentration in Lung Homogenate): 5.65 ng/mL
- concentration at 24 h ([1]; lung homogenate, 3 mg/kg, Group 2, 3 mg/kg QD, 24h, individual animals, LLOQ 1 ng/mL, read-out: Analyte Concentration in Lung Homogenate): 1.12 ng/mL
- concentration at 8 h ([1]; lung, 1.5 mg/kg, Group 3, 1.5 mg/kg QD, 8h, individual animals, LLOQ 10 ng/g, read-out: Analyte Concentration in Lung): 56.5 ng/g
- concentration at 8 h ([1]; lung, 1.5 mg/kg, Group 3, 1.5 mg/kg QD, 8h, mean, read-out: Mean Concentration in Lung): 72.7 ng/g
- concentration at 8 h ([1]; lung, 3 mg/kg, Group 2, 3 mg/kg QD, 8h, mean, read-out: Mean Concentration in Lung): 89.4 ng/g
- concentration at 24 h ([1]; lung, 3 mg/kg, Group 2, 3 mg/kg QD, 24h, individual animals, LLOQ 10 ng/g, read-out: Analyte Concentration in Lung): 11.2 ng/g
- concentration at 8 h ([1]; lung, 3 mg/kg, Group 4, 3 mg/kg Q2D, 8h, mean, read-out: Mean Concentration in Lung): 244 ng/g
- concentration at 24 h ([1]; lung, 3 mg/kg, Group 4, 3 mg/kg Q2D, 24h, mean, read-out: Mean Concentration in Lung): 46.9 ng/g
- concentration at 8 h ([1]; tumor homogenate, 1.5 mg/kg, Group 3, 1.5 mg/kg QD, 8h, individual animals, read-out: Analyte Concentration in Tumor Homogenate): 14.3 ng/mL
- concentration at 24 h ([1]; tumor homogenate, 1.5 mg/kg, Group 3, 1.5 mg/kg QD, 24h, individual animals, read-out: Analyte Concentration in Tumor Homogenate): 2.06 ng/mL
- concentration at 8 h ([1]; tumor, 1.5 mg/kg, Group 3, 1.5 mg/kg QD, 8h, individual animals, dilution factor 10, read-out: Analyte Concentration in Tumor): 143 ng/g
- concentration at 8 h ([1]; tumor, 1.5 mg/kg, Group 3, 1.5 mg/kg QD, 8h, mean, read-out: Mean Concentration in Tumor): 185 ng/g
- concentration at 24 h ([1]; tumor, 1.5 mg/kg, Group 3, 1.5 mg/kg QD, 24h, individual animals, dilution factor 10, read-out: Analyte Concentration in Tumor): 20.6 ng/g
- concentration at 24 h ([1]; tumor, 1.5 mg/kg, Group 3, 1.5 mg/kg QD, 24h, mean, read-out: Mean Concentration in Tumor): 20.2 ng/g
- concentration at 8 h ([1]; tumor, 3 mg/kg, Group 2, 3 mg/kg QD, 8h, mean, read-out: Mean Concentration in Tumor): 270 ng/g
- concentration at 24 h ([1]; tumor, 3 mg/kg, Group 2, 3 mg/kg QD, 24h, mean, read-out: Mean Concentration in Tumor): 37.2 ng/g
- concentration at 8 h ([1]; tumor, 3 mg/kg, Group 4, 3 mg/kg Q2D, 8h, mean, read-out: Mean Concentration in Tumor): 425 ng/g
- concentration at 24 h ([1]; tumor, 3 mg/kg, Group 4, 3 mg/kg Q2D, 24h, mean, read-out: Mean Concentration in Tumor): 85.4 ng/g
- % Tumor growth, AVG ([2]; day 0, group AVG): 0%
- Tumor volume, AVG ([2]; day 0, group AVG): 182.834 mm^3
- % Tumor growth ([2]; day 0, individual animals): 0%
- Tumor volume ([2]; day 0, individual animals): 161.981 mm^3 and 208.246 mm^3 and 257.236 mm^3 and 142.384 mm^3 and 223.655 mm^3 and 103.5 mm^3
- % Tumor growth, AVG ([2]; day 4, group AVG): 71.8081%
- Tumor volume, AVG ([2]; day 4, group AVG): 319.202 mm^3
- % Tumor growth ([2]; day 4, individual animals): 19.7778% and 126.134% and 74.5915% and 55.5126% and 76.849% and 77.9831%

From article PMC7156724, “Potent BRD4 inhibitor suppresses cancer cell-macrophage interaction” (Nature Communications, 2020)
